For the data set, the system named is CCRIS mutagenicity, Ames/micronucleus/aberration tests. Nature of the data set: CCRIS mutagenicity studies.

Calls of active or inactive are those of the source. How the calls were made is not given here.

`CCCC(=O)O`: the mutagenic call runs as follows: (Test System: AMES SALMONELLA TYPHIMURIUM, Strain/Indicator: TA97, Metabolic Activation: NONE, Method: PREINCUBATION) “inactive; negative”; (Test System: AMES SALMONELLA TYPHIMURIUM, Strain/Indicator: TA97, Metabolic Activation: RAT, LIVER, S-9, AROCLOR 1254, Method: PREINCUBATION) “inactive; negative”; (Test System: AMES SALMONELLA TYPHIMURIUM, Strain/Indicator: TA98, Metabolic Activation: NONE, Method: PREINCUBATION) “inactive; negative”; (Test System: AMES SALMONELLA TYPHIMURIUM, Strain/Indicator: TA98, Metabolic Activation: RAT LIVER S-9, PHENOBARBITAL AND BETA-NAPHTHOFLAVONE, Method: PREINCUBATION) “inactive; negative”; (Test System: AMES SALMONELLA TYPHIMURIUM, Strain/Indicator: TA100, Metabolic Activation: NONE, Method: PREINCUBATION) “inactive; negative”; (Test System: AMES SALMONELLA TYPHIMURIUM, Strain/Indicator: TA100, Metabolic Activation: RAT LIVER S-9, PHENOBARBITAL AND BETA-NAPHTHOFLAVONE, Method: PREINCUBATION) “inactive; negative”. In addition, the mutagenic call (Test System: AMES SALMONELLA TYPHIMURIUM, Strain/Indicator: TA102, Metabolic Activation: NONE, Method: PREINCUBATION) is “inactive; negative”; the mutagenic call (Test System: AMES SALMONELLA TYPHIMURIUM, Strain/Indicator: TA102, Metabolic Activation: RAT LIVER S-9, PHENOBARBITAL AND BETA-NAPHTHOFLAVONE, Method: PREINCUBATION) was “inactive; negative”; the mutagenic call (Test System: AMES SALMONELLA TYPHIMURIUM, Strain/Indicator: TA102, Metabolic Activation: RAT, LIVER, S-9, AROCLOR 1254, Method: PREINCUBATION) was “inactive; negative”; the mutagenic call (Test System: AMES SALMONELLA TYPHIMURIUM, Strain/Indicator: TA104, Metabolic Activation: NONE, Method: PREINCUBATION) is “inactive; negative”; the mutagenic call (Test System: AMES SALMONELLA TYPHIMURIUM, Strain/Indicator: TA104, Metabolic Activation: RAT LIVER S-9, PHENOBARBITAL AND BETA-NAPHTHOFLAVONE, Method: PREINCUBATION) is “inactive; negative”; the mutagenic call (Test System: AMES SALMONELLA TYPHIMURIUM, Strain/Indicator: TA1535, Metabolic Activation: NONE, Method: PREINCUBATION) was “inactive; negative”. In addition, the mutagenic call reads like this: (Test System: AMES SALMONELLA TYPHIMURIUM, Strain/Indicator: TA1535, Metabolic Activation: RAT LIVER S-9, PHENOBARBITAL AND BETA-NAPHTHOFLAVONE, Method: PREINCUBATION) “inactive; negative”; (Test System: AMES SALMONELLA TYPHIMURIUM, Strain/Indicator: TA1537, Metabolic Activation: NONE, Method: PREINCUBATION) “inactive; negative”; (Test System: AMES SALMONELLA TYPHIMURIUM, Strain/Indicator: TA1537, Metabolic Activation: RAT LIVER S-9, PHENOBARBITAL AND BETA-NAPHTHOFLAVONE, Method: PREINCUBATION) “inactive; negative”; (Test System: E.COLI, Strain/Indicator: WP2UVRA/PKM101, Metabolic Activation: NONE, Method: PREINCUBATION) “inactive; negative”; (Test System: E.COLI, Strain/Indicator: WP2UVRA/PKM101, Metabolic Activation: RAT LIVER S-9, PHENOBARBITAL AND BETA-NAPHTHOFLAVONE, Method: PREINCUBATION) “inactive; negative”; (Test System: E.COLI, Strain/Indicator: WP2UVRA, Metabolic Activation: NONE, Method: PREINCUBATION) “inactive; negative”. Besides, for the setting “Test System: E.COLI, Strain/Indicator: WP2UVRA, Metabolic Activation: RAT LIVER S-9, PHENOBARBITAL AND BETA-NAPHTHOFLAVONE, Method: PREINCUBATION”, the mutagenic call was “inactive; negative”.
Consider `Cn1cnc2c1c(=O)[nH]c(=O)n2C`, for which the mutagenic call is, setting by setting: (Test System: AMES SALMONELLA TYPHIMURIUM, Strain/Indicator: TA97A, Metabolic Activation: NONE, Method: STANDARD PLATE) “inactive; negative”; (Test System: AMES SALMONELLA TYPHIMURIUM, Strain/Indicator: TA97A, Metabolic Activation: RAT LIVER S-9, Method: STANDARD PLATE) “inactive; negative”; (Test System: AMES SALMONELLA TYPHIMURIUM, Strain/Indicator: TA98, Metabolic Activation: NONE, Method: STANDARD PLATE) “inactive; negative”; (Test System: AMES SALMONELLA TYPHIMURIUM, Strain/Indicator: TA98, Metabolic Activation: RAT, LIVER, S-9, AROCLOR 1254, Method: STANDARD PLATE) “inactive; negative”; (Test System: AMES SALMONELLA TYPHIMURIUM, Strain/Indicator: TA100, Metabolic Activation: NONE, Method: STANDARD PLATE) “inactive; negative”; (Test System: AMES SALMONELLA TYPHIMURIUM, Strain/Indicator: TA100, Metabolic Activation: RAT LIVER S-9, Method: STANDARD PLATE) “inactive; negative”. For the same compound, the mutagenic call was “inactive; negative” (Test System: AMES SALMONELLA TYPHIMURIUM, Strain/Indicator: TA100, Metabolic Activation: RAT, LIVER, S-9, AROCLOR 1254, Method: STANDARD PLATE); “inactive; negative” (Test System: AMES SALMONELLA TYPHIMURIUM, Strain/Indicator: TA102, Metabolic Activation: NONE, Method: STANDARD PLATE); “inactive; negative” (Test System: AMES SALMONELLA TYPHIMURIUM, Strain/Indicator: TA102, Metabolic Activation: RAT LIVER S-9, Method: STANDARD PLATE); “inactive; negative” (Test System: AMES SALMONELLA TYPHIMURIUM, Strain/Indicator: TA104, Metabolic Activation: NONE, Method: STANDARD PLATE); “inactive; negative” (Test System: AMES SALMONELLA TYPHIMURIUM, Strain/Indicator: TA104, Metabolic Activation: RAT LIVER S-9, Method: STANDARD PLATE); “inactive; negative” (Test System: AMES SALMONELLA TYPHIMURIUM, Strain/Indicator: TA1535, Metabolic Activation: NONE, Method: STANDARD PLATE). For the same compound, the mutagenic call (Test System: AMES SALMONELLA TYPHIMURIUM, Strain/Indicator: TA1535, Metabolic Activation: RAT, LIVER, S-9, AROCLOR 1254, Method: STANDARD PLATE) was “inactive; negative”; the mutagenic call (Test System: AMES SALMONELLA TYPHIMURIUM, Strain/Indicator: TA1537, Metabolic Activation: NONE, Method: STANDARD PLATE) was “inactive; negative”; the mutagenic call (Test System: AMES SALMONELLA TYPHIMURIUM, Strain/Indicator: TA1537, Metabolic Activation: RAT, LIVER, S-9, AROCLOR 1254, Method: STANDARD PLATE) was “inactive; negative”; the mutagenic call (Test System: AMES SALMONELLA TYPHIMURIUM, Strain/Indicator: TA1538, Metabolic Activation: NONE, Method: STANDARD PLATE) is “inactive; negative”; the mutagenic call (Test System: AMES SALMONELLA TYPHIMURIUM, Strain/Indicator: TA1538, Metabolic Activation: RAT, LIVER, S-9, AROCLOR 1254, Method: STANDARD PLATE) is “inactive; negative”; the mutagenic call (Test System: MOUSE LYMPHOMA, Strain/Indicator: L5178Y (TK+/TK-), Metabolic Activation: NONE, Method: SUSPENSION/PLATE) is “active; positive”. For the setting “Test System: MOUSE LYMPHOMA, Strain/Indicator: L5178Y (TK+/TK-), Metabolic Activation: RAT, LIVER, S-9, AROCLOR 1254, Method: STANDARD PLATE”, the mutagenic call was “active; positive”.
